Laboratory results published in patent publication US20170152258A9, “Substituted Pyridopyrazines as Syk Inhibitors” (HUTCHISON MEDIPHARMA LIMITED, priority 2012, published 2017).
“And” between values parts separate entries of the source, which are not always exact repeats. Identical values can stand only once.

What was measured:
Syk kinase = Syk kinase (Homo sapiens, UniProt P43405); test: SYK Enzymatic Assay (Z-LYTE Tyr 2 peptide); format: biochemical; settings: 8 concentrations 1 μM down to 0.0003 μM
Procedure, shortened: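 Z-LYTE format using Tyr 2 peptide. After the 1 h room-temperature kinase reaction, development reagent was added for 1 h, then stop reagent. Fluorescence was read at 445 and 520 nm. Compounds were tested at 8 concentrations, 1 μM down to 0.0003 μM (1:3 dilutions).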

RBL-2H3 cells = test: IgE-induced Beta-hexosaminidase secretion in RBL-2H3 cells; format: cell-based; settings: DNP-BSA stimulation
Procedure: For the determination of IgE-induced Beta-hexosaminidase secretion, RBL-2H3 cells (SIBS) are seeded in 96 well plates at 4×10^4 cells per well and incubated in MEM media with 15% FBS and Glutamine ([…]) for 4 hours and sensitized with 0.5 ug/ml of SPE-7 overnight. Cells are washed 3 times with Tyrode's buffer and incubated in the presence or absence of various concentrations of the testing compound for 20 min at 37° C., 5% CO2. Cells are stimulated by adding 10 uL of DNP-BSA solution (150 ng/mL) to each well and incubating for 45 minutes at 37° C., 5% CO2. Then, 45 μL of the supernatant is taken and incubated with 100 μL of 1 mM 4-Nitrophenyl N-acetyl-β-D-glucosaminide (Sigma, Cat. No. N9376), which is diluted in 0.05 M citrate buffer (pH 4.5), for 1.5 hr at 37° C. The reactions are quenched by adding 185 μL of 0.05 M sodium carbonate buffer (pH 10.0). Plates are read at 405 nm on Multiskan (MK 3).

[1] = Rattus norvegicus, RBL-2H3, IgE-induced Beta-hexosaminidase secretion
[2] = IgE-induced Beta-hexosaminidase secretion

SMILES	IC50 (Syk kinase)	IC50 (RBL-2H3 cells; [1])	IC50 (RBL-2H3 cells; [2])
CNc1ccc(-c2cc3nccnc3c(OC[C@@H]3CN(S(C)(=O)=O)CCO3)n2)cc1F [Compound 52]	42 nM	47 nM	
CC(Oc1nc(-c2ccc(N(C)C)cc2)cc2nccnc12)C1CN(S(N)(=O)=O)CCO1 (centres unmarked) [Compound 246]	95 nM	44 nM	
CCC(O)(CC)c1ccc(-c2cc3nccnc3c(OC[C@@H]3CN(C(N)=O)CCO3)n2)cc1 [Compound 281]	65 nM	663 nM	
CCN(CC)c1ccc(-c2cc3nccnc3c(O[C@@H]3CCOC3)n2)cc1 [Compound 151]	44 nM	43 nM	
CC(F)(F)c1ccc(-c2cc3nccnc3c(OC[C@@H]3CN(S(C)(=O)=O)CCO3)n2)cc1 [Compound 230]	152 nM	429 nM	
CS(=O)(=O)N1CCO[C@H](COc2nc(-c3ccc(N4CCN(CCO)CC4)cc3)cc3nccnc23)C1 [Compound 27]	21 nM	222 nM	
CCC(O)(CC)c1ccc(-c2cc3nccnc3c(OC[C@@H]3CN(C(C)=O)CCO3)n2)cc1 [Compound 270]	179 nM	185 nM	
CNC(=O)N1CCO[C@H](COc2nc(-c3ccc(C(C)(C)C#N)cc3)cc3nccnc23)C1 [Compound 249]	42 nM	69 nM	
CNC(=O)COc1ccc(-c2cc3nccnc3c(OC[C@@H]3CN(S(C)(=O)=O)CCO3)n2)cc1 [Compound 129]	50 nM	230 nM	
CN(C)c1ccc(-c2cc3nccnc3c(OC[C@@H]3CN(C(=O)CO)CCO3)n2)cc1 [Compound 173]	32 nM	54 nM	
COc1ccc(-c2cc3nccnc3c(OC[C@@H]3CN(S(N)(=O)=O)CCO3)n2)cc1OC [Compound 292, (S)-2-(((7-(3,4-dimethoxyphenyl)pyrido[3,4-b]pyrazin-5-yl)oxy)methyl)morpholine-4-sulfonamide]	14 nM	232 nM	
COc1ccc(-c2cc3nccnc3c(O[C@@H]3CCOC3)n2)cc1OC [Compound 150]	92 nM	97 nM	
CNC(=O)N1CCO[C@H](COc2nc(-c3ccc(N(C)C)cc3)cc3nccnc23)C1 [Compound 137]	28 nM	45 nM	
CN(C)c1ccc(-c2cc3nccnc3c(OC[C@@H]3CN(C(=O)c4cccnc4)CCO3)n2)cc1 [Compound 78]	61 nM	74 nM	
CC1CN(c2ccc(-c3cc4nccnc4c(OC[C@@H]4CN(S(C)(=O)=O)CCO4)n3)cc2)CCO1 (some centres unmarked) [Compound 18]	23 nM	62 nM	
CN(C)c1ccc(-c2cc3nccnc3c(OC[C@@H]3CN(S(=O)(=O)c4cccnc4)CCO3)n2)cc1 [Compound 92]	76 nM	72 nM	
CC(C)c1ccc(-c2cc3nccnc3c(OC[C@@H]3CN(S(C)(=O)=O)CCO3)n2)cc1 [Compound 181]	91 nM and 68 nM	57 nM	69 nM
CS(=O)(=O)N1CCO[C@H](COc2nc(-c3ccc(N4CCCCC4)cc3)cc3nccnc23)C1 [Compound 21]	30 nM	88 nM	
CN(C)c1ccc(-c2cc3nccnc3c(OC[C@@H]3CN(S(=O)(=O)CCN4CC[C@H](O)C4)CCO3)n2)cc1 [Compound 103]	32 nM	325 nM	
CN1CCN(c2ccc(-c3cc4nccnc4c(O[C@@H]4CCOC4)n3)cc2)CC1 [Compound 125]	31 nM	43 nM	
C[C@@H]1CN(c2ccc(-c3cc4nccnc4c(OC[C@@H]4CN(S(C)(=O)=O)CCO4)n3)cc2)C[C@H](C)O1 [Compound 19]	29 nM	110 nM	
O=C(C(F)F)N1CCO[C@H](COc2nc(-c3ccc(N4CCOCC4)cc3)cc3nccnc23)C1 [Compound 61]	27 nM	29 nM	
c1cnc2c(O[C@@H]3CCOC3)nc(-c3ccc(C4CCNCC4)cc3)cc2n1 [Compound 190]	50 nM	645 nM	
NS(=O)(=O)N1CCO[C@H](COc2nc(-c3ccc(N4CCOCC4)cc3)cc3nccnc23)C1 [Compound 62]	24 nM	97 nM	
Cc1cc(-c2cc3nccnc3c(OC[C@@H]3CN(C(=O)[C@H](C)O)CCO3)n2)ccc1N(C)C [Compound 201]	49 nM	100 nM	
CNS(=O)(=O)N1CCO[C@H](COc2nc(-c3ccc(N(C)C)c(C)c3)cc3nccnc23)C1 [Compound 221]	44 nM	38 nM	
CN(C)c1ccc(-c2cc3nccnc3c(OC[C@@H]3CN(S(N)(=O)=O)CCO3)n2)cc1 [Compound 178]	19 nM	63 nM	

SMILES	IC50 (Syk kinase)	IC50 (RBL-2H3 cells; [1])	IC50 (RBL-2H3 cells; [2])
CS(=O)(=O)N1CCO[C@H](COc2nc(-c3ccc(N4CCNCC4)cc3)cc3nccnc23)C1 [Compound 14]	25 nM	631 nM	
CN(C)c1ccc(-c2cc3nccnc3c(OC[C@@H]3CN(C(=O)[C@H]4CCOC4)CCO3)n2)cc1 [Compound 95]	31 nM	49 nM	71 nM
CN1CCc2cc(-c3cc4nccnc4c(OC[C@@H]4CN(S(N)(=O)=O)CCO4)n3)ccc21 [Compound 215]	19 nM	40 nM	
N#CC1(c2ccc(-c3cc4nccnc4c(OC[C@@H]4CN(S(N)(=O)=O)CCO4)n3)cc2)CC1 [Compound 293]	50 nM	241 nM	
COc1ccc(-c2cc3nccnc3c(OC[C@@H]3CN(C(N)=O)CCO3)n2)cc1OC [Compound 142, (S)-2-(((7-(3,4-dimethoxyphenyl)pyrido[3,4-b]pyrazin-5-yl)oxy)methyl)morpholine-4-carboxamide]	68 nM	950 nM	
CC(=O)N1CCC(c2ccc(-c3cc4nccnc4c(OC[C@@H]4CN(C(C)=O)CCO4)n3)cc2)CC1 [Compound 54]	73 nM	257 nM	
CN1CCN(c2ccc(-c3cc4nccnc4c(OC[C@@H]4CN(C(=O)C(F)F)CCO4)n3)cc2)CC1 [Compound 16]	36 nM	33 nM	
CN(C)c1ccc(-c2cc3nccnc3c(OC[C@@H]3CN(C(=O)[C@H]4CC[C@H](O)CC4)CCO3)n2)cc1 [Compound 74]	127 nM	186 nM	
CN(C)c1ccc(-c2cc3nccnc3c(OC[C@@H]3CN(C(=O)c4cnn(C)c4)CCO3)n2)cc1 [Compound 87]	60 nM	200 nM	
CC(C)c1ccc(-c2cc3nccnc3c(OC[C@@H]3CN(C(N)=O)CCO3)n2)cc1 [Compound 175]	55 nM	69 nM	
CC1(C)OCc2cc(-c3cc4nccnc4c(OC[C@@H]4CN(C(N)=O)CCO4)n3)ccc21 [Compound 298]	28 nM	191 nM	
CN(C)c1ccc(-c2cc3nccnc3c(OC[C@@H]3CN(C(=O)[C@H]4CC[C@@H](O)CC4)CCO3)n2)cc1 [Compound 75]	95 nM	131 nM	
CCS(=O)(=O)N1CCC(c2ccc(-c3cc4nccnc4c(OC[C@@H]4CN(C(C)=O)CCO4)n3)cc2)CC1 [Compound 23]	62 nM	109 nM	
CN1CCOC(COc2nc(-c3ccc(C(C)(C)O)cc3)cc3nccnc23)C1=O (centres unmarked) [Compound 316]	115 nM	113 nM	
CC(C)(C#N)c1ccc(-c2cc3nccnc3c(OCC3CN(S(N)(=O)=O)CCO3)n2)cc1 (centres unmarked) [Compound 250]	28 nM	112 nM	
CC(C)(C(N)=O)c1ccc(-c2cc3nccnc3c(OC[C@@H]3CN(S(C)(=O)=O)CCO3)n2)cc1 [Compound 231]	42 nM	87 nM	
N#CC1(c2ccc(-c3cc4nccnc4c(OC[C@@H]4CN(S(N)(=O)=O)CCO4)n3)cc2)CCC1 [Compound 294]	51 nM	218 nM	132 nM
CC(=O)N1CC(c2ccc(-c3cc4nccnc4c(OC[C@@H]4CN(C(N)=O)CCO4)n3)cc2)C1 [Cmpd 296]	72 nM	> 3330 nM	
Cc1cc(-c2cc3nccnc3c(OC[C@@H]3CN(S(C)(=O)=O)CCO3)n2)ccc1N(C)C [Compound 134]	3 nM	15 nM	
CNC(=O)CS(=O)(=O)N1CCO[C@H](COc2nc(-c3ccc(N(C)C)cc3)cc3nccnc23)C1 [Compound 99]	23 nM	106 nM	
CN(C)c1ccc(-c2cc3nccnc3c(OC[C@@H]3CN(C(=O)C4CCOCC4)CCO3)n2)cc1 [Compound 73]	204 nM	142 nM	
COC(C)(C)c1ccc(-c2cc3nccnc3c(OC[C@@H]3CN(C(C)=O)CCO3)n2)cc1 [Compound 269]	91 nM	88 nM	
CCC(=O)N1CCO[C@H](COc2nc(-c3ccc(N(C)C)cc3)cc3nccnc23)C1 [Compound 198]	40 nM	86 nM	
CN(C)c1ccc(-c2cc3nccnc3c(OC[C@@H]3CN(C(=O)C(C)(F)F)CCO3)n2)cc1 [Compound 172]	50 nM	55 nM	
CN1CCCc2cc(-c3cc4nccnc4c(OC[C@@H]4CN(S(C)(=O)=O)CCO4)n3)ccc21 [Compound 207]	11 nM	8 nM	14 nM
O=C(C(F)F)N1CCO[C@H](COc2nc(-c3ccc(N4CCOCC4)c(F)c3)cc3nccnc23)C1 [Compound 15]	96 nM	102 nM	
